# Experimental data as given in patent publication US20180289763A1, “COMPOSITION CONTAINING HERBAL MEDICINE EXTRACTS OF PINELLIA AND SCUTELLARIA FOR REDUCING SIDE EFFECTS DUE TO ANTICANCER DRUGS” (COMPREHENSIVE AND INTEGRATIVE MEDICINE INSTITUTE, priority 2013, published 2018).
# Marks after values point to notes of the source that are not given here.
# Key:
# [1] = tested on: fundus antioxidant defense system; test: Fundus antioxidant defense system (MDA, GSH, CAT, SOD); assay type: in vivo, rat
# Text: Changes in MDA content, GSH content, SOD activity, and CAT activity in the fundus in each group that were observed are shown in Table 6.
# [2] = tested on: gastrin immunoreactive cells; test: Gastrin immunoreactive cells in pyloric mucosa; assay type: in vivo, rat
# Text: As a result of observing histopathological changes, the numbers of gastrin and serotonin immunoreactive cells in the pyloric mucosa and the number of serotonin immunoreactive cells in the colonic mucosa that were detected are shown in Table 9.
# Meanwhile, in the ondansetron administered group, a change in the number of gastrin immunoreactive cells in the pyloric mucosa similar to that in the cisplatin control was shown (Table 9, and FIG. 8).
# gastrin = test: Gastrin content in pyloric tissues; assay type: in vivo, rat
# Text: Meanwhile, in the ondansetron administered group, a change in pylorus gastrin content similar to that in the cisplatin control was shown (FIG. 4(A)).
# [3] = tested on: cisplatin-induced gastrointestinal motility disorder; test: Fecal parameters (pellet number, wet and dry weight, water content); assay type: in vivo, rat; settings: for Fecal Dry-weight / Fecal Water content / Fecal Wet-weight / Fecal pellet number: feces of 24 hours
# [4] = tested on: cisplatin-induced gastrointestinal motility disorder; test: Charcoal transit ratio in small intestine (gastrointestinal motility); assay type: in vivo, rat; settings: for Distance charcoal meal transferred / GI charcoal transit ratio: during 30 min
# Text: Also, permeation of a substance through the digestive tract represents the motility in the entire gastrointestinal tract, measurement of a charcoal transit ratio in the small intestine is known to be very useful to diagnose whether or not there is a problem in digestive motility (Wintola et al., 2010), and a decrease in the charcoal transit ratio in the small intestine indicates a decrease in digestive motility such as the fecal retention, that is, constipation (Sagar et al., 2005; Meite et al., 2010).
# A total length of a small intestine and a distance that a charcoal meal was transferred in the small intestine were measured, and the charcoal transit ratio was calculated, and then the results are shown in Table 4.
# [5] = tested on: cisplatin-induced gastrointestinal tract damage (fundic and pyloric mucosa); test: Histopathology of fundus and pylorus (mucosa thickness, degenerative mucosa percentage)
# Method: (§1) In the examples, to provide an integrated medical method to reduce side effects caused by a chemotherapeutic agent with respect to a patient with a neoplastic disease, an effect of co-administration of a Pinelliae Rhizoma and Scutellariae Radix extract with respect to a digestive motility disorder caused by the chemotherapeutic agent was examined. In the following examples, rats with a gastrointestinal motility disorder caused by cisplatin were used. 2 mg/kg of cisplatin was administered once a week for 5 weeks, each of 200, 100 and 50 mg/kg of the Pinelliae Rhizoma and Scutellariae Radix extracts were administered at 14 days from the fourth administration of cisplatin, influences on gastrointestinal motility, damage to a digestive tract mucosa and physiology of digestive tract endocrine cells were observed as well as an antioxidative effect, experimental results were compared to an ondansetron 1 mg/kg administered group, wherein the ondansetron was known as a representative 5-HT3 receptor blocking agent to have an effective effect on a cisplatin-induced gastrointestinal motility disorder.
# (§2) In this example, as laboratory animals, Sprague-Dawley, Slc: SD rats (6-week-old males, SLC, Shizuoka, Japan) were used. 60 healthy SPF rats were purchased, acclimated for 14 days, and 8 laboratory animals having uniform body weights (intact control: 249.13±12.12 g, 232˜264 g; cisplatin treated group: 225.35±10.58 g, 206˜243 g) when fasting after three weeks of cisplatin administration per each group were selected to be used in the experiment. […] All of the laboratory animals underwent fasting for about 18 hours at each of the first treatment of cisplatin, the first drug administration and the final necropsy (even in this period, drinking water was freely provided), individuals were identified using picric acid.
# (§3) To cause a gastrointestinal motility disorder, 2 mg/kg of cisplatin (Sigma-Aldrich, St. Louise, Mo., USA) was dissolved in a saline solution, and the resulting solution was intraperitoneally administered at a dose of 1 ml/kg once a week for 5 weeks, thereby causing a chronic gastrointestinal motility disorder, and in the normal vehicle control, the same dose of a saline solution, instead of cisplatin, was intraperitoneally administered by the same method.
# (§4) A Pinelliae Rhizoma and Scutellariae Radix herbal medicine was dissolved in sterile distilled water at a dose of 5 ml/kg (a body weight of the animal) three weeks after the first cisplatin administration, and forcibly and orally administered with a 5 ml syringe equipped with a metal zonde 30 minutes after the fourth cisplatin administration once a day for 14 days. The ondansetron was dissolved in a saline solution, subcutaneously administered with the same frequency as the Pinelliae Rhizoma and Scutellariae Radix herbal medicine at a dose of 1 ml/kg, and in the normal vehicle and cisplatin controls, instead of the Pinelliae Rhizoma and Scutellariae Radix extract or ondansetron, only the same dose of sterile distilled water was orally administered.
# (§5) An effect on the gastrointestinal motility was evaluated by evaluating a charcoal transit ratio in the small intestine, effects on constipation were evaluated by observing a body weight, the change in fecal parameters (the fecal pellet number, the fecal weight, and the water content in the feces), the histopathological changes in the colon containing fecal pellets—changes in fecal pellet surface mucosa thickness, mucous producing cell number per mm2 of the mucosa and average mucosa thickness.
# [6] = tested on: serotonin immunoreactive cells; test: Serotonin immunoreactive cells in pyloric and colonic mucosa; assay type: in vivo, rat
# Method: as §1, §2, §3, §4, §5
# tryptophan hydroxylase = test: Pylorus tryptophan hydroxylase activity; assay type: in vivo, rat
# Text: Meanwhile, in the ondansetron administered group, a change in tryptophan hydroxylase activity similar to that in the cisplatin control was shown (FIG. 3(A)).
# monoamine oxidase = test: Pylorus monoamine oxidase activity; assay type: in vivo, rat
# Method: Compared to the normal vehicle control, in the cisplatin control, a significant (p<0.01) decrease in activity of a serotonin lyase, monoamine oxidase, in pyloric tissues was shown, but in the Pinelliae Rhizoma and Scutellariae Radix extract 200, 100 and 5 mg/kg administered groups, compared to the cisplatin control, significant (p<0.01) increases in monoamine oxidase activity in pyloric tissues were dose-dependently shown. Meanwhile, in the ondansetron administered group, a change in monoamine oxidase activity similar to that in the cisplatin control was shown (FIG. 3(B)).
# [7] = Body weight and body weight gain in cisplatin-treated rats; assay type: in vivo, rat
# Method: Body weights and body weight gains in each group that were measured after the first and fourth administrations of cisplatin and the necropsy are shown in Table 3.
# serotonin = test: Serotonin content in pyloric tissues; assay type: in vivo, rat
# Text: Meanwhile, in the ondansetron administered group, a change in pylorus serotonin content similar to that in the cisplatin control was shown (FIG. 4(B)).
# [8] = tested on: cisplatin-induced colonic mucosa atrophy; assay type: in vivo, rat; settings: 1 mg/kg s.c., 14 days
# Text: In the cisplatin control, considerable decreases in the mucous producing cell number per unit area (mm^2) and fecal pellet surface mucous thickness were caused along with the atrophy of the total colonic mucosa containing fecal pellets, and thus, compared to the normal vehicle control, significant (p<0.01) decreases in fecal pellet-containing colonic mucosa thickness, the mucous producing cell number in the mucosa and fecal pellet surface mucous thickness were shown.
# [9] = cisplatin 2 mg/kg i.p. once a week for 5 weeks
# [10] = cisplatin control (2 mg/kg i.p. weekly) compared to the normal vehicle control
# [11] = cisplatin control (2 mg/kg i.p. weekly) compared to the normal vehicle control, 33 to 34 days after first cisplatin
# [12] = 1 mg/kg s.c., 14 days, cisplatin-treated rats
# [13] = 1 mg/kg s.c., 14 days, compared to the cisplatin control
# [14] = cisplatin-treated rats, at sacrifice
# [15] = compared to the cisplatin control
compound,measurement,setting,value
"N.N.[Cl][Pt][Cl] [Cisplatin, cis-diaminedichloroplatinum II]",Fundus Catalase,[1]; [9],44.06 ± 8.98^a nM/mim/mg tissue
same,Fundus Glutathione,[1]; [9],1.22 ± 0.40^d μM/mg tissue
same,Fundus Malondialdehyde,[1]; [9],16.24 ± 2.27^a nM/g tissue
same,Fundus Superoxide dismutase,[1]; [9],71.96 ± 15.54^a nM/mim/mg tissue
same,change of CAT activity in fundus tissues at the final sacrifice,[1]; [10],−55.83%
same,change of GSH content in the fundus tissue at the final sacrifice,[1]; [10],−72.46%
same,change of MDA content in fundus tissues at the final sacrifice,[1]; [10],327.30%
same,change of SOD activity in the fundus tissue at the final sacrifice,[1]; [10],−56.87%
same,Number of Gastrin-IR cells in the pyloric mucosa,[2]; [9],11.75 ± 3.77^d cells/mm^2 of mucosa
same,change of number of gastrin immunoreactive cells per unit area of the pyloric mucosa,[2]; [10],−86.42%
same,change of gastrin content in pyloric tissues at the final sacrifice,gastrin; [10],−59.22%
same,Fecal Dry-weight,[3]; [9],5.14 ± 1.51 g
same,Fecal Water content,[3]; [9],32.86 ± 6.45^d %
same,Fecal Wet-weight,[3]; [9],7.66 ± 2.14^a g
same,Fecal pellet number,"[3]; cisplatin 2 mg/kg i.p. once a week for 5 weeks, 33 to 34 days after first cisplatin",15.75 ± 5.50^a
same,change of average dry weight of feces for 24 hours,[3]; [11],−7.30%
same,change of average water content in feces excreted for 24 hours,[3]; [11],−54.47%
same,change of average wet weight of the feces excreted for 24 hours,[3]; [11],−62.34%
same,change of total number of fecal pellets excreted for 24 hours,[3]; [11],−61.23%
same,Distance charcoal meal transferred,[4]; [9],45.00 ± 11.08^a cm
same,GI charcoal transit ratio,[4]; [9],35.61 ± 8.66^a %
same,change of charcoal transit ratio in the small intestine,[4]; [10],−53.09%
same,change of distance that the charcoal meal was transferred in the small intestine,[4]; [10],−53.06%
same,Fundus Degenerative mucosa percentage,[5]; [9],54.89 ± 10.97^d %/mucosa
same,Fundus Total mucosa thickness,[5]; [9],436.02 ± 87.18^a μm
same,Pylorus Degenerative mucosa percentage,[5]; [9],68.26 ± 10.44^a %/mucosa
same,Pylorus Total mucosa thickness,[5]; [9],146.12 ± 26.03^a μm
same,change of average fundic mucosa thickness,[5]; [10],−47.53%
same,change of pylorus average mucosa thickness,[5]; [10],−61.72%
same,Number of Serotonin-IR cells in the colonic mucosa,[6]; [9],73.75 ± 11.79^a cells/mm^2 of mucosa
same,Number of Serotonin-IR cells in the pyloric mucosa,[6]; [9],65.38 ± 11.02^a cells/mm^2 of mucosa
same,change of number of serotonin immunoreactive cells per unit area of the colonic mucosa,[6]; [10],514.58%
same,change of number of serotonin immunoreactive cells per unit area of the pyloric mucosa,[6]; [10],530.12%
same,change of tryptophan hydroxylase activity in pyloric tissues at the final sacrifice,tryptophan hydroxylase; [10],184.55%
same,change of monoamine oxidase activity in pyloric tissues at the final sacrifice,monoamine oxidase; [10],−68.47%
same,Body weight Sacrifice [C],[7]; [9],195.13 ± 12.96^a g
same,Body weight gain Test article dosing periods [C − B],[7]; [9],−29.88 ± 3.04^d g
same,Body weight gain Total experiment periods [C − A],[7]; [9],−4.00 ± 7.01^d g
same,Body weight At 4th cisplatin treatment [B],"[7]; cisplatin 2 mg/kg i.p. once a week, three weeks after first administration",225.00 ± 13.90^a g
same,change of body weight gain during the total 5-week experiment,[7]; [10],−107.34%
same,change of body weight gain for 2 weeks after the drug administration,[7]; [10],−896.67%
same,change of serotonin content in pyloric tissues at the final sacrifice,serotonin; [10],279.57%
"Cc1nccn1CC1CCc2c(c3ccccc3n2C)C1=O (centres unmarked) [Ondansetron, ondansetron]",Fundus Catalase,[1]; [12],63.48 ± 12.39^ac nM/mim/mg tissue
same,Fundus Glutathione,[1]; [12],1.81 ± 0.17^de μM/mg tissue
same,Fundus Malondialdehyde,[1]; [12],9.67 ± 1.93^ac nM/g tissue
same,Fundus Superoxide dismutase,[1]; [12],103.00 ± 22.32^ac nM/mim/mg tissue
same,change of CAT activity in fundus tissues at the final sacrifice,[1]; [13],44.10%
same,change of GSH content in the fundus tissue at the final sacrifice,[1]; [13],48.11%
same,change of MDA content in fundus tissues at the final sacrifice,[1]; [13],−40.45%
same,change of SOD activity in the fundus tissue at the final sacrifice,[1]; [13],43.13%
same,Number of Gastrin-IR cells in the pyloric mucosa,[2]; [12],11.63 ± 3.70^d cells/mm^2 of mucosa
same,change of number of gastrin immunoreactive cells per unit area of the pyloric mucosa,[2]; [13],−1.06%
same,change of gastrin content in pyloric tissues at the final sacrifice,gastrin; [13],−3.05%
same,Fecal Dry-weight,[3]; [12],5.27 ± 1.10 g
same,Fecal Water content,[3]; [12],55.32 ± 13.07^ef %
same,Fecal Wet-weight,[3]; [12],12.55 ± 3.71^ab g
same,Fecal pellet number,[3]; [12],25.38 ± 6.95^ac
same,change of average dry weight of feces for 24 hours,[3]; [13],2.48%
same,change of average water content in feces excreted for 24 hours,[3]; [13],68.34%
same,change of average wet weight of the feces excreted for 24 hours,[3]; [13],63.91%
same,change of total number of fecal pellets excreted for 24 hours,[3]; [13],61.11%
same,Distance charcoal meal transferred,[4]; [12],65.13 ± 10.68^ac cm
same,GI charcoal transit ratio,[4]; [12],50.80 ± 8.85^ac %
same,change of charcoal transit ratio in the small intestine,[4]; [13],42.66%
same,change of distance that the charcoal meal was transferred in the small intestine,[4]; [13],44.72%
same,Fundus Degenerative mucosa percentage,[5]; [12],35.42 ± 4.69^de %/mucosa
same,Fundus Total mucosa thickness,[5]; [12],592.37 ± 51.61^ac μm
same,Pylorus Degenerative mucosa percentage,[5]; [12],41.08 ± 10.77^ac %/mucosa
same,Pylorus Total mucosa thickness,[5]; [12],240.01 ± 36.08^ac μm
same,change of average fundic mucosa thickness,[5]; [13],35.86%
same,change of pylorus average mucosa thickness,[5]; [13],64.25%
same,Number of Serotonin-IR cells in the colonic mucosa,[6]; [12],73.00 ± 17.65^a cells/mm^2 of mucosa
same,Number of Serotonin-IR cells in the pyloric mucosa,[6]; [12],64.00 ± 10.45^a cells/mm^2 of mucosa
same,change of number of serotonin immunoreactive cells per unit area of the colonic mucosa,[6]; [13],−1.02%
same,change of number of serotonin immunoreactive cells per unit area of the pyloric mucosa,[6]; [13],−2.10%
same,change of tryptophan hydroxylase activity in pyloric tissues at the final sacrifice,tryptophan hydroxylase; [13],−4.35%
same,change of monoamine oxidase activity in pyloric tissues at the final sacrifice,monoamine oxidase; [13],5.05%
same,Colonic mucosa thickness,[8]; [14],192.08 ± 27.34^ac μm
same,Fecal pellet surface mucous thickness,[8]; [14],28.00 ± 6.98^df μm
same,Mucous producing cell number,[8]; [14],306.63 ± 78.94^ac cells/mm^2
same,change of fecal pellet surface mucous thickness in the colon,[8]; [15],239.94%
same,change of fecal pellet-containing colon average mucosa thickness,[8]; [15],72.06%
same,change of mucous producing cell number in the colonic mucosa,[8]; [15],126.92%
same,Body weight Sacrifice [C],[7]; [12],212.38 ± 4.66^ab g
same,Body weight gain Test article dosing periods [C − B],[7]; [12],−14.50 ± 5.68^de g
same,Body weight gain Total experiment periods [C − A],[7]; [12],14.50 ± 11.64^de g
same,change of body weight gain during the total 5-week experiment,[7]; [13],463.50%
same,change of body weight gain for 2 weeks after the drug administration,[7]; [13],52.46%
same,change of serotonin content in pyloric tissues at the final sacrifice,serotonin; [13],−4.04%
